melting point | SMILES
249 to 251 °C | N#Cc1nc(Cl)cc(N)c1N
131 to 133 °C | COC(=O)c1cc2ccc(C)cc2[nH]1
246 to 248 °C | N#Cc1cc2c([nH]c1=O)CCCC2
176 to 178 °C | COc1ccccc1NS(=O)(=O)c1cc(C(=O)O)ccc1Cl
189 to 191 °C | NC(=O)Cc1cc(Br)c(-c2ccc(N)cc2)s1
80 to 82 °C | CCOC(=O)c1sc(SC)nc1N
164 to 166 °C | CC(C)c1ccc(N2Cc3ccc(N)cc3C2)cc1
85 to 87 °C | CC(C)(C)OC(=O)NC1CCCCCC1O (stereo not given)
181 to 183 °C | Oc1cccc2cn[nH]c12
59 to 61 °C | CC(NC(=O)OC(C)(C)C)C(=O)Cc1ccccc1 (stereo not given)
106 to 108 °C | NCc1ccc(NC(=O)C(F)(F)F)cc1
157 to 159 °C | CC(Sc1nncn1C)C(=O)O (stereo not given)
279 to 281 °C | O=C(O)c1csc(C(=O)O)c1
271 to 273 °C | O=C1OCCc2cnc3ncnn3c21
169 to 171 °C | Cc1cc(C)n2c(C=O)cnc2n1
53 to 55 °C | OCc1nc(Cc2ccc(F)cc2)no1
< 17 °C | CC(C)(C)c1ccc(OCC(=O)O)c(C(C)(C)C)c1
215 to 217 °C | O=C(O)c1cc(=O)n(Cc2ccccc2)c2ccccc12
172 to 174 °C | O=C(O)CCn1cc(Br)ccc1=O
270 to 272 °C | O=C(O)c1ccc(S(=O)(=O)N2CCCCC2)cc1
83 to 85 °C | N#CCCNc1ccc2c(c1)OCCO2
119 to 121 °C | CC(C)(C)CS(N)(=O)=O
121 to 123 °C | Cn1cc(N2CCCC(Br)C2=O)cn1 (stereo not given)

melting point | SMILES
151 to 153 °C | O=C1NC2(CCCCC2)C(=O)N1Cc1ccccc1
119 to 121 °C | Cc1c(S(=O)(=O)Cl)cnn1-c1ccc(Cl)cc1
39 to 41 °C | Cc1ccc(S(=O)(=O)Cl)c(F)c1
171 to 175 °C | CC(C)(C)NC(N)=S
115 to 117 °C | CCOc1ccc(C(N)=S)cc1
169 to 171 °C | Cc1c(C(=O)O)c(=O)oc2cc(F)ccc12
89 to 91 °C | CC(C)(CC(=O)O)NC(=O)OC(C)(C)C
116 to 118 °C | CC(C)c1nc2ccccc2n1CC#N
62 to 64 °C | CC1(C(=O)O)CCOCC1
191 to 193 °C | Cc1nn(-c2cccc(C(F)(F)F)c2)c(C)c1C(=O)C(=O)O
127 to 129 °C | O=S(=O)(Nc1cccc(O)c1)c1ccccc1
181 to 183 °C | CNc1ncc([N+](=O)[O-])cc1C#N
316 to 318 °C | O=C(O)c1cc(/C=C/c2ccc(C(F)(F)F)cc2)nc2ccc(Br)cc12
66 to 68 °C | O=C(O)CCOc1ccc2ccccc2c1
174 to 176 °C | O=C1c2ccccc2C(=O)N1C1CCC(O)CC1 (stereo not given)
142 to 144 °C | CN(C)CCOc1ccc(C(N)=S)cc1
199 to 201 °C | Cc1cc(S(C)(=O)=O)cc(C(=O)O)c1C
103 to 105 °C | c1cnc2c(c1)NCCC2
116 to 118 °C | O=Cc1ccnc(-c2ccccc2)n1
131 to 133 °C | Cn1ccnc(NN)c1=O
150 to 152 °C | O=C(Nc1ccccn1)OCC(F)(F)F
102 to 104 °C | Cc1ccc(-c2csc(N)n2)o1
244 to 246 °C | Nc1nsc(N2CCCC2)n1

melting point | SMILES
207 to 209 °C | O=C(Nc1ccsc1C(=O)O)c1ccoc1
157 to 159 °C | O=C1OCCN1c1cc([N+](=O)[O-])ccc1Cl
172 to 174 °C | CS(=O)(=O)c1ccc(OCC(=O)O)cc1
181 to 183 °C | NS(=O)(=O)c1ccc(Cl)c2ccccc12
112 to 114 °C | N#Cc1cccc(COc2ccc(N)cc2Cl)c1
79 to 81 °C | Cc1cc(Br)c2ccccc2c1N
75 to 77 °C | Cc1sc(N)nc1Cc1ccccc1
179 to 181 °C | Cc1cc(C(=O)O)nn1-c1ccccc1Cl
185 to 187 °C | Nc1nc2ncccn2n1
79 to 81 °C | Nc1ccc(Oc2ccc(CO)cc2)cc1
168 to 170 °C | CC(Cl)C(=O)Nc1ccc2c(c1)OCO2 (stereo not given)
108 to 110 °C | CCc1nnc2cc(Cl)ncn12
189 to 191 °C | Nc1cc(NC(=O)c2ccccc2I)ccc1Cl
70 to 72 °C | CCOC(=O)c1cnn2c(C(=O)OCC)c(CCCO)cnc12
22 to 23 °C | Clc1ccncc1Cl
149 to 151 °C | CCOc1ccc(F)c(C(=O)O)c1F
213 to 215 °C | Cc1nn(C)c(C(F)(F)F)c1C(=O)O
136 to 138 °C | CNS(=O)(=O)c1ccc(Cl)c(C(=O)O)c1Cl
145 to 147 °C | O=Cc1cc(O)cc(Br)c1O
239 to 241 °C | O=C(O)C1CS(=O)(=O)c2ccccc2O1 (stereo not given)
248 to 250 °C | Nc1nc(-c2ccc(Cl)cc2)no1
146 to 148 °C | CN1CCCNc2nc3ccccc3nc21
250 to 252 °C | NC1=NC(=O)NC12CCCC2

melting point | SMILES
78 to 80 °C | O=C(O)Cc1cccc(OCCCOc2ccccc2)c1
176 to 178 °C | Nc1c(Cl)cc(Cl)c2c1N=S=N2
220 to 222 °C | COc1ccc(C2C(C(N)=O)CCC(=O)N2C)cc1 (stereo not given)
80 to 82 °C | COCCOc1ccc(C(F)(F)F)cc1NC(=O)CCl
143 to 145 °C | O=[N+]([O-])c1ccc(N2CCOCC2)nc1
264 to 266 °C | NC(=O)CNC(=O)c1ccc(O)cc1
252 to 254 °C | Cc1nc(-c2ccncc2)[nH]c(=O)c1CC(=O)O
209 to 211 °C | Cc1cc(C(=O)O)[nH]c(=O)n1
155 to 157 °C | CCOC(=O)/C(C#N)=C/Nc1ccc(I)cc1
84 to 86 °C | O=Cc1ccc(-c2cc(Cl)ccc2Cl)o1
177 to 179 °C | CN1C(=O)CNC1=O
259 to 261 °C | Cc1ccc(-c2nc3ccccc3[nH]2)s1
82 to 84 °C | Nc1ccc(NC(=O)CN2CCCCCC2)cc1
148 to 150 °C | c1cnnc(NCC2CNCCO2)c1 (stereo not given)
211 to 213 °C | COc1cc(F)cc(C(=O)O)c1N
156 to 158 °C | COc1cccc(-c2nn(-c3ccccc3)cc2C(=O)O)c1
159 to 161 °C | Cn1cc(N)cc(Br)c1=O
199 to 201 °C | COc1cc2cc(C(=O)O)[nH]c2cc1OC
142 to 144 °C | NC(=O)c1ccc(N)cc1N1CCCCC1
205 to 209 °C | CCOC=C1C(=O)N(c2cccc(Cl)c2)C(=O)c2ccccc21
104 to 106 °C | Nc1ncon1
85 to 90 °C | Cc1ccc(-c2cc(C(=O)NN)c3ccccc3n2)cc1
169 to 171 °C | O=C1CCCc2c(Br)cccc2N1

melting point | SMILES
355 to 357 °C | O=C(O)c1cc(O)nc2ccc(Br)cc12
57 to 59 °C | CC(C)(C)OC(=O)NCC1CCCCC1O (stereo not given)
218 to 220 °C | CN1CCC(Oc2ccc(C(=O)O)cc2)CC1
195 to 197 °C | Nc1cc(-c2ccc([N+](=O)[O-])cc2)no1
119 to 121 °C | COc1ccc2[nH]c3c(c2c1)CCC3
181 to 183 °C | COc1ccccc1NS(=O)(=O)c1ccc(NN)c([N+](=O)[O-])c1
201 to 203 °C | Clc1ccc2nnc(-c3ccccc3)n2n1
174 to 176 °C | CCC(NC(N)=O)C(=O)O (stereo not given)
196 to 198 °C | O=C(O)CSc1ccsc1[N+](=O)[O-]
97 to 99 °C | COc1ccc(-c2nc(C=O)cs2)cc1
243 to 245 °C | FC(F)(F)Cn1c(S)nnc1-c1ccncc1
136 to 138 °C | Cn1cnc(S(=O)(=O)NC2CCCC2)c1Cl
249 to 251 °C | Cc1cc(C(=O)O)c(C)n1-c1ccc(C#N)cc1
309 to 311 °C | O=c1[nH]cnc2cc(N3CCOCC3)c([N+](=O)[O-])cc12
111 to 113 °C | NC(CCN1CCN(Cc2ccccc2)CC1)=NO
159 to 161 °C | Cc1ccccc1-n1ncc(C(=O)O)c1N
131 to 133 °C | Cc1sc2ncn(N)c(=O)c2c1C
94 to 96 °C | COc1ccccc1-c1cc(N)[nH]n1
209 to 211 °C | COc1ccc2oc(C)c(C(=O)O)c2c1
151 to 153 °C | NC(=O)C1CCC1
53 to 55 °C | O=C1OCC=C1Br
127 to 129 °C | CCOC(=O)c1cc2c(nc1N)CCCC2
49 to 51 °C | Cn1cnnc1CO

melting point | SMILES
229 to 231 °C | O=C1CC(=O)N(c2cccnc2)C(=S)N1
166 to 168 °C | O=C(O)C1CCCN(c2nc3ccccc3s2)C1 (stereo not given)
77 to 79 °C | COc1ccc(SCC(=O)O)cc1
153 to 155 °C | NS(=O)(=O)Cc1c(F)cccc1F
211 to 213 °C | CC(C)CNc1c(N)n(Cc2ccccc2)c(=O)[nH]c1=O
210 to 212 °C | O=C(O)/C=C/c1ccc(OCc2ccccn2)cc1
118 to 120 °C | Cc1ccc(CCC(=O)NCC(=O)O)cc1
67 to 69 °C | Nc1cccc(NC(=O)CN2CCCCCC2)c1
184 to 186 °C | COc1ccc(Nc2nnc(S)s2)cc1
131 to 133 °C | CC1=NN(c2ccccc2)C(=O)C1=NO
134 to 136 °C | Nc1nc2ccc(OCC(F)(F)F)cc2s1
155 to 157 °C | O=C(O)C1(Cc2nc3ccccc3s2)CCCC1
80 to 82 °C | Cc1ccccc1-c1csc(N)n1
182 to 184 °C | O=C(CO)Nc1cccc([N+](=O)[O-])c1
98 to 100 °C | O=C(O)C1=CCCO1
162 to 164 °C | CCOC(=O)c1c(C)[nH]c(C=O)c1C
77 to 79 °C | Nc1ccc(Sc2ccccc2Cl)cc1
78 to 80 °C | CC(=O)Nc1cccc(S(=O)(=O)Cl)c1
77 to 79 °C | CCOc1ccc(N)cc1CO
106 to 108 °C | FC(F)(F)c1ccc(OCc2ccc(Cl)nc2)cc1
152 to 154 °C | CCOC(=O)c1c(-c2ccccc2)oc2ccc(O)cc12
97 to 99 °C | N#CC1(N2CCN(C(=O)CCl)CC2)CCCCC1

SMILES | melting point
CCN1CCN(c2ccc(Cl)cc2N)CC1 | 110 to 112 °C
COc1ccc(C)cc1-c1nn(CC(C)C)cc1C(=O)O | 181 to 183 °C
O=C(O)Cn1cnc([N+](=O)[O-])n1 | 187 to 189 °C
NC1CCCCNC1=O (stereo not given) | 54 to 56 °C
S=C=Nc1cccnc1Cl | 35 to 37 °C
O=S(=O)(Cl)C1CCOCC1 | 34 to 36 °C
CCCn1c(C)c(C(=O)O)c2cc(OC)ccc21 | 171 to 173 °C
c1nc(N2CCNCC2)c2sccc2n1 | 98 to 100 °C
